What all share (type): cell-based
In data set [1] the target is T1, USP19 (Homo sapiens, UniProt O94966).
T1 sequence (O94966 1-1318): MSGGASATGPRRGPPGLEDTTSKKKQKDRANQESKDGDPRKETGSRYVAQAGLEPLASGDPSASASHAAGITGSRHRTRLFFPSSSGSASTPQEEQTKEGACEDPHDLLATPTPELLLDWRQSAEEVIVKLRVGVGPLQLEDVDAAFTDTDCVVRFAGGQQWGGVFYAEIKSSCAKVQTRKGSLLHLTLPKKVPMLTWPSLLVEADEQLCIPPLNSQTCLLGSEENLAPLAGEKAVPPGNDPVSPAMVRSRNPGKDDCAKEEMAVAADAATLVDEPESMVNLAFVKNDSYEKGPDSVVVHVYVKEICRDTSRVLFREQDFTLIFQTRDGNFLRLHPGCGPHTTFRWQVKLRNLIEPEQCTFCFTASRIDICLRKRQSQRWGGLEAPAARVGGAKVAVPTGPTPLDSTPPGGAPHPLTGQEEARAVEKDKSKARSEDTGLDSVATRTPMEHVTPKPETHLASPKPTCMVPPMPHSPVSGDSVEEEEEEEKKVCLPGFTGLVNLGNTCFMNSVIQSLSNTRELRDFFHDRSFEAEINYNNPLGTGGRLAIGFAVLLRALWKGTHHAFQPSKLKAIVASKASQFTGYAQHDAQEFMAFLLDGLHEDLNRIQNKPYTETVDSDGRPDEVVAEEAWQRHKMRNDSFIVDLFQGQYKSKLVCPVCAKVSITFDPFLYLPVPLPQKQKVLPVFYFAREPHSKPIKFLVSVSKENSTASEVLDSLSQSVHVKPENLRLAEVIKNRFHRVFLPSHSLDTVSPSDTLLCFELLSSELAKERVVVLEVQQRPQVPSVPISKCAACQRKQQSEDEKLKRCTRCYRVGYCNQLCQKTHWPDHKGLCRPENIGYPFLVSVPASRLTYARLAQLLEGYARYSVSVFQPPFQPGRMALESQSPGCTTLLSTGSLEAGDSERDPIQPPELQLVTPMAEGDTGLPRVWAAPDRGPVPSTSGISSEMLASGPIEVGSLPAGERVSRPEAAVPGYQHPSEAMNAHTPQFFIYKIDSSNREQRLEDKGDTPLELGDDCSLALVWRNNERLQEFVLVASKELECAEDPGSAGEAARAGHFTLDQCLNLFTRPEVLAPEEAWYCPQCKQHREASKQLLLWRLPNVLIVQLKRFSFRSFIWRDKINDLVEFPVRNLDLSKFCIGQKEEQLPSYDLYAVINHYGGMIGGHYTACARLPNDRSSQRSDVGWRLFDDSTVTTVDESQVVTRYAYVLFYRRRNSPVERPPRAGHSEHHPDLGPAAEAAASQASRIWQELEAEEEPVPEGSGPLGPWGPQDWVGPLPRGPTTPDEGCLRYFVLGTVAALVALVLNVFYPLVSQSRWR
In words: Cell target engagement, neuroblastoma cell line. How it is done:
(§1) Cells from a breast cancer cell line, a neuroblastoma cell line and a mouse skeletal muscle cell line were treated with a USP19 inhibitor compound (ADC-141, corresponding to Example 212 provided herein) for 2 hrs, lysed (lysis buffer: 50 mM Tris pH 7.4; 150 mM NaCl; 5 mM MgCl2; 0.5 mM EDTA; 0.5% NP40; 10% Glycerol; 2 mM DTT) and Ubiquitin-propargylamine (Ub-PA; UbiQ) or Ubiquitin-vinyl methyl ester (Ub-VME; Almac Sciences Scotland Limited) was then added. Samples were analysed by western blotting probing for USP19 (EC50 determined by densitometry).

Data set [2] concerns the target T1, USP19. In words: Cell target engagement, breast cancer cell line. How it is done: as §1
The target of data set [3] is T2, USP19 (Mus musculus, UniProt Q3UJD6).
T2 construct: endogenous in cells
T2 sequence (Q3UJD6 1-1360): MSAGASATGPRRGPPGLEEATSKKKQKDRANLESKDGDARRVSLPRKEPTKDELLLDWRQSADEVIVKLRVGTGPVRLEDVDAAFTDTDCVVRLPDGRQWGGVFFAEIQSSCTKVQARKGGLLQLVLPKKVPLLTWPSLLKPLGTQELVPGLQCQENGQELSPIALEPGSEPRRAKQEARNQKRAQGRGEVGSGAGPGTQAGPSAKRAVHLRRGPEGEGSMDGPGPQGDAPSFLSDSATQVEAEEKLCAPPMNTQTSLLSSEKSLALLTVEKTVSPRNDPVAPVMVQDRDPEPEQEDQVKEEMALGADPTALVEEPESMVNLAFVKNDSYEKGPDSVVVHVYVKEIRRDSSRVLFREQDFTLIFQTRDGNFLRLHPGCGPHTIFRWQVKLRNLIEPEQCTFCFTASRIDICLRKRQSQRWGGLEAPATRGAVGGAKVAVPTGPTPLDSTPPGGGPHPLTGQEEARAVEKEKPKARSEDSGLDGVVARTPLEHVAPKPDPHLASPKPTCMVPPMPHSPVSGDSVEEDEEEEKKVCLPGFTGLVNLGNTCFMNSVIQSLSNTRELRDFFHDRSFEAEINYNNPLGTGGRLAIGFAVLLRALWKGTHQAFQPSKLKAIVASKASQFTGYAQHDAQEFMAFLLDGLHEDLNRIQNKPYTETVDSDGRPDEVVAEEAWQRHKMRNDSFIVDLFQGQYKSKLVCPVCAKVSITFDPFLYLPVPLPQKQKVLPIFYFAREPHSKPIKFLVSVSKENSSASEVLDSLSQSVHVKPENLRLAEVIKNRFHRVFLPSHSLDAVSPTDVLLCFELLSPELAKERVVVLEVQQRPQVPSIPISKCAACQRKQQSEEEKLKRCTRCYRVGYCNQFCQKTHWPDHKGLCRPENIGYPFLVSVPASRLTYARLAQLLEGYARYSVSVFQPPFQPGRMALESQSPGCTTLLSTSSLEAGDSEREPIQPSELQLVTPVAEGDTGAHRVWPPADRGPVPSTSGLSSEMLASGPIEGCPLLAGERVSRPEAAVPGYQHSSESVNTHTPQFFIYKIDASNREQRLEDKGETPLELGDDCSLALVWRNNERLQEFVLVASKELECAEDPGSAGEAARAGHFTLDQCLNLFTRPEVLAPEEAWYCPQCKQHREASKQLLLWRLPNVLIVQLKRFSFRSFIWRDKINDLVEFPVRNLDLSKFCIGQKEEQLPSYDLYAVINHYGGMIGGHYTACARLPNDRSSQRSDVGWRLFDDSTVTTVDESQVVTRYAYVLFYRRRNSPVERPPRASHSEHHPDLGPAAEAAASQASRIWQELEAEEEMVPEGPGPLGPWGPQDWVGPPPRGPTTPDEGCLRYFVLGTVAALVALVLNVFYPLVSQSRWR
Kind of data set: Cell target engagement, mouse skeletal muscle cell line. Here is the method: as §1

The mark [4] stands for this setting: 2 hrs treatment, Ub-PA or Ub-VME probe, western blot.

The structures appear in SMILES notation.

`C[C@H](CC1CCCCC1)C(=O)N1CC[C@@](O)(Cn2cc(C(=O)N3CCNCC3)c(-c3ccccc3)cc2=O)C2(CCCC2)C1` [ADC-141, 1-(((S)-7-((R)-3-Cyclohexyl-2-methylpropanoyl)-10-hydroxy-7-azaspiro[4.5]decan-10-yl)methyl)-4-phenyl-5-(piperazine-1-carbonyl)pyridin-2(1H)-one]: the cell permeability result in data set [1], in data set [2] and in data set [3] was “good cell permeability” each time. The “EC50 (USP19 target engagement, densitometry)” value in data set [1] (setting [4]), in data set [2] (setting [4]) and in data set [3] (setting [4]) was “low nanomolar” in each case.

Source of the values: US20220016115A1, “USP19 INHIBITORS FOR USE IN THERAPY” (ALMAC DISCOVERY LIMITED, priority 2018, published 2022).
